From ChEMBL document CHEMBL1153653, “Imidazo[4,5-b]pyridine-based AT1 / AT2 angiotensin II receptor antagonists” (Bioorg Med Chem Lett, 1994)
pIC50: −log10 of the molar value.

What was measured:
[1] = biological target: T1, Type-2 angiotensin II receptor (Rattus norvegicus, UniProt P35351); assay: In vitro binding affinity determined by its ability to displace the specific binding ligand [125I]-Sar1, Ile8-AII from AT2 receptor in rat midbrain membranes; type: cell membranes, Membrane
T1 sequence (P35351 whole entry): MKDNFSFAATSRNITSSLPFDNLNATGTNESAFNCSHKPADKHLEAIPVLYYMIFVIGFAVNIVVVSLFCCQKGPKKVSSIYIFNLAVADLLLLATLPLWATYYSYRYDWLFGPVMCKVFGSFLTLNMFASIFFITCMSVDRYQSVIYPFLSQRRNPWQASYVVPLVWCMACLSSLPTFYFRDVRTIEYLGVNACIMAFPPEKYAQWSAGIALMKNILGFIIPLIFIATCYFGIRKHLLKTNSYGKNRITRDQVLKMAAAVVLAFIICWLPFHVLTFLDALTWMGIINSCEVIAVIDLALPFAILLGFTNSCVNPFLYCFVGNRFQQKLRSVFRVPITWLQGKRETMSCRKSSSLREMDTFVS

[2] = biological target: T2, Type-1 angiotensin II receptor (Oryctolagus cuniculus, UniProt P34976); assay: In vitro binding affinity determined by its ability to displace the specific binding ligand [125I]-Sar1, Ile8-AII from Angiotensin II receptor, type 1 in rabbit aorta membranes; type: cell membranes, Membrane
T2 sequence (P34976 whole entry): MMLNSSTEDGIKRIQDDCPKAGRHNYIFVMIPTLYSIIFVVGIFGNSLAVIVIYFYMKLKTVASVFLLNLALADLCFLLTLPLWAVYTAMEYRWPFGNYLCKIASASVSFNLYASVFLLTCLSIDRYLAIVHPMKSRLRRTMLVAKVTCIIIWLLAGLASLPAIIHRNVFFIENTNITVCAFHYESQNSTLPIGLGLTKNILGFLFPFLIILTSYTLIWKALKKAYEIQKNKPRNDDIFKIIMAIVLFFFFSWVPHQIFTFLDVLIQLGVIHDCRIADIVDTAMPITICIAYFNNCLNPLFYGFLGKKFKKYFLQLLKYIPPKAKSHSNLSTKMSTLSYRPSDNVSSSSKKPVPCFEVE

[3] = tested on: Rattus norvegicus; assay: Effective dose in rat after intravenous administration; Range is (0.062 - 0.076); type: functional
[4] = tested on: Canis familiaris; assay: Inhibition on AII-induced pressor responses in Beagle dogs at a dose of 0.3 upon iv administration at duration of >6 hr; type: functional, Canis lupus familiaris
[5] = tested on: Rattus norvegicus; assay: Inhibition on AII-induced pressor responses in rats at a dose of 0.3 upon po administration at duration of >6 hr; type: functional
[6] = tested on: Rattus norvegicus; assay: Effective dose in rat after peroral administration; Range is (0.001 - 0.167); type: functional; conditions: po
[7] = tested on: Rattus norvegicus; assay: Inhibition on AII-induced pressor responses in rats at a dose of 0.3 upon iv administration at duration of >6 hr; type: functional
[8] = tested on: Rattus norvegicus; assay: Inhibitory activity against AII-induced pressor responses in rats at a dose of 0.3 upon po administration at duration of >6 hr; type: functional
[9] = biological target: Angiotensin II receptor (Homo sapiens) (UniProt P30556+P50052); assay: Ratio of IC50 of AT2/AT1 receptors; type: protein assay
[10] = tested on: Canis familiaris; assay: Effective dose in Beagle dog after intravenous administration; Range is (0.025 - 0.029); type: functional; conditions: Canis lupus familiaris
[11] = tested on: Rattus norvegicus; assay: Inhibitory activity against AII-induced pressor responses in rats at a dose of 0.3 upon iv administration at duration of >6 hr; type: functional
[12] = tested on: Canis familiaris; assay: Inhibitory activity against AII-induced pressor responses in Beagle dogs at a dose of 0.3 upon iv administration at duration of >6 hr; type: functional, Canis lupus familiaris
[13] = tested on: Rattus norvegicus; assay: Effective dose in rat after intravenous administration; Range is (0.12 - 0.15); type: functional
[14] = tested on: Canis familiaris; assay: Effective dose in Beagle dog after peroral administration; Range is (0.52 - 0.64); type: functional; conditions: Canis lupus familiaris, po
[15] = tested on: Rattus norvegicus; assay: Effective dose in rat after peroral administration; Range is (0.25 - 0.31); type: functional; conditions: po
[16] = tested on: Canis familiaris; assay: Inhibitory activity against AII-induced pressor responses in Beagle dogs at a dose of 1.0 upon po administration at duration of >6 hr; type: functional, Canis lupus familiaris

| pIC50 [1] | pIC50 [2] | Compound | other results |
| --- | --- | --- | --- |
| < 5.00 | – | CCc1nc2c(C)cc(C)nc2n1Cc1ccc(-c2ccccc2-c2nnn[nH]2)cc1 [L-158809] | – |
| 7.48 | 10.00 | CCc1nc2c(C)cc(C)nc2n1Cc1ccc(-c2ccccc2S(=O)(=O)NC(=O)CCC2CCCC2)cc1 | – |
| – | 9.00 | CCCCCN(C(=O)c1ccccc1)c1ccc2nc(CCC)n(Cc3ccc(-c4ccccc4-c4nn[nH]n4)cc3)c(=O)c2c1 | – |
| – | – | CCCCOC(=O)NS(=O)(=O)c1ccccc1-c1ccc(Cn2c(CCCC)nc3cc(NC(=O)CCCC)c(C)nc32)cc1 | ED50 [3]: 0.069 mg/kg; Max inhibition [4]: 100%; Max inhibition [5]: 86%; ED50 [6]: 0.014 mg/kg; Max inhibition [7]: 82% |
| 8.57 | 9.43 | CCCCCC(=O)NS(=O)(=O)c1ccccc1-c1ccc(Cn2c(CCCC)nc3cc(NC(=O)CCCC)cnc32)cc1 | – |
| 8.25 | 9.29 | CCCCOC(=O)NS(=O)(=O)c1ccccc1-c1ccc(Cn2c(CCC)nc3c(C)c(NC(=O)CCC)cnc32)cc1 | – |
| 9.51 | 10.00 | CCCCC(=O)Nc1cc2nc(CCCC)n(Cc3ccc(-c4ccccc4S(=O)(=O)NC(=O)CCC4CCCC4)cc3)c2nc1C | – |
| 9.03 | 9.48 | CCCC(=O)Nc1cnc2c(nc(CCC)n2Cc2ccc(-c3ccccc3S(=O)(=O)NC(=O)OCc3ccccc3)cc2)c1C | Max inhibition [8]: 58%; Ratio [9]: 2.8; ED50 [10]: 0.027 mg/kg; Max inhibition [11]: 85%; Max inhibition [12]: 100%; ED50 [13]: 0.13 mg/kg; ED50 [14]: 0.58 mg/kg; ED50 [15]: 0.28 mg/kg; Max inhibition [16]: 76% |
| 9.60 | 9.59 | CCCC(=O)Nc1c(C)nc2c(nc(CCC)n2Cc2ccc(-c3ccccc3S(=O)(=O)NC(=O)CCC3CCCC3)cc2)c1C | – |
| 6.29 | 9.22 | CCCCc1nc2cc(NC(=O)N(c3ccccc3)c3ccccc3)c(C)nc2n1Cc1ccc(-c2ccccc2-c2nn[nH]n2)cc1 | – |
